Type in all cases: cell-based
One experiment relates to MDA-MB-468. In words: MTT cytotoxicity assay, breast cancer cell line MDA-MB-468. The following applies: Homo sapiens, MDA-MB-468, 24 h, read-out: IC50 MDA-MB-468. A general note: Tetrazolium dyes change colour on reduction, which living cells bring about.
A further experiment has as its system A375. The experiment is described as follows: MTT cytotoxicity assay, melanoma cell line A375. The following applies: Homo sapiens, A-375, 24 h, read-out: IC50 A375.
Another experiment relates to MCF7. The experiment is described as follows: MTT cytotoxicity assay, breast cancer cell line MCF7. The note with it: Homo sapiens; for IC50: MCF7, 24 h, read-out: IC50 MCF7.

This note sets out measurements from publication PMC9850771 (RSC Advances, 2023).

Bounds are passed on as bounds.

Consider `CCCCCn1cc(COc2nc3c(c(=O)n(C)c(=O)n3C)n2C)nn1` [Compound 22f, 1,3,7-Trimethyl-8-((1-pentyl-1H-1,2,3-triazol-4-yl)methoxy)-1H-purine-2,6(3H,7H)-dione], for which the IC50 (as a rule, the concentration that gives 50% inhibition) with MDA-MB-468 was 126 ± 0.6 µM; in the experiment with A375, 160 ± 1.5 µM; in the experiment with MCF7, 136 ± 0.2 µM. In the experiment on MCF7 (MCF7, read-out: viability value, MCF-7), the viability (usually a read-out of living cells in per cent, often relative to untreated cells) at 300 µM came to 17 ± 3%.

For `CCCCCCn1cc(COc2nc3c(c(=O)n(C)c(=O)n3C)n2C)nn1` [Compound 22g, 8-((1-Hexyl-1H-1,2,3-triazol-4-yl)methoxy)-1,3,7-trimethyl-1H-purine-2,6(3H,7H)-dione], the IC50 in the experiment with MDA-MB-468, in the experiment with A375 and in the experiment on MCF7 was > 300 µM in each case.

Turning to `CN(Cc1cnc2nc(N)nc(N)c2n1)c1ccc(C(=O)N[C@@H](CCC(=O)O)C(=O)O)cc1` [MTX, Methotrexate, reference compound], the results for the IC50 in the experiment on MDA-MB-468, in the experiment on A375 and with MCF7 were 37 ± 1.9 µM, 32 ± 2.2 µM and 30 ± 2.9 µM, respectively.

Regarding `Cn1c(=O)c2c(nc(OCc3cn(C(c4ccccc4)c4ccccc4)nn3)n2C)n(C)c1=O` [Compound 22e, 8-((1-Benzhydryl-1H-1,2,3-triazol-4-yl)methoxy)-1,3,7-trimethyl-1H-purine-2,6(3H,7H)-dione], the IC50 in the experiment on MDA-MB-468 is > 300 µM; in the experiment with A375, 286 ± 0.2 µM; in the experiment with MCF7 it was 284 ± 0.2 µM.

Consider `Cn1c(=O)c2c(nc(OCc3cn(CCc4ccccc4)nn3)n2C)n(C)c1=O` [Compound 22b, 1,3,7-Trimethyl-8-((1-phenethyl-1H-1,2,3-triazol-4-yl)methoxy)-1H-purine-2,6(3H,7H)-dione], for which the IC50 in the experiment on MDA-MB-468, in the experiment with A375 and with MCF7 was > 300 µM in each case.

For the molecule `Cn1c(=O)c2c(nc(OCc3cn(Cc4ccccc4)nn3)n2C)n(C)c1=O` [Compound 22c, 8-((1-Benzyl-1H-1,2,3-triazol-4-yl)methoxy)-1,3,7-trimethyl-1H-purine-2,6(3H,7H)-dione], the IC50 in the experiment on MDA-MB-468 was > 300 µM; in the experiment on A375, < 12.5 µM; with MCF7, > 300 µM.

`Cn1c(=O)c2c(nc(OCc3cn(CCCc4ccccc4)nn3)n2C)n(C)c1=O` [Compound 22a, 1,3,7-Trimethyl-8-((1-(3-phenylpropyl)-1H-1,2,3-triazol-4-yl)methoxy)-1H-purine-2,6(3H,7H)-dione]: the IC50 worked out at 256 ± 1.4 µM in the experiment on MDA-MB-468, 179 ± 1.2 µM in the experiment with A375 and 268 ± 0.2 µM in the experiment with MCF7.

As to `CCCCCCCCn1cc(COc2nc3c(c(=O)n(C)c(=O)n3C)n2C)nn1` [Compound 22i, 1,3,7-Trimethyl-8-((1-octyl-1H-1,2,3-triazol-4-yl)methoxy)-1H-purine-2,6(3H,7H)-dione], the results for the concentration for half-maximal inhibition (IC50) with MDA-MB-468, in the experiment with A375 and in the experiment on MCF7 were 175 ± 1.4 µM, 146 ± 1.5 µM and 165 ± 1.8 µM, respectively.

Take `CCCCCCCn1cc(COc2nc3c(c(=O)n(C)c(=O)n3C)n2C)nn1` [Compound 22h, 8-((1-Heptyl-1H-1,2,3-triazol-4-yl)methoxy)-1,3,7-trimethyl-1H-purine-2,6(3H,7H)-dione]: the IC50 with MDA-MB-468, in the experiment on A375 and in the experiment with MCF7 was > 300 µM throughout.

On to `CCCCCCCCCCn1cc(COc2nc3c(c(=O)n(C)c(=O)n3C)n2C)nn1` [Compound 22j, 8-((1-Decyl-1H-1,2,3-triazol-4-yl)methoxy)-1,3,7-trimethyl-1H-purine-2,6(3H,7H)-dione], for which the IC50 in the experiment on MDA-MB-468, in the experiment with A375 and with MCF7 was > 300 µM each time.

In the case of `Cc1ccc(Cn2cc(COc3nc4c(c(=O)n(C)c(=O)n4C)n3C)nn2)cc1` [Compound 22d, 1,3,7-Trimethyl-8-((1-(4-methylbenzyl)-1H-1,2,3-triazol-4-yl)methoxy)-3,7-dihydro-1H-purine-2,6-dione], the IC50 in the experiment on MDA-MB-468 is > 300 µM; in the experiment on A375, 194 ± 1.6 µM; in the experiment on MCF7, > 300 µM.
